Molecular target: T1, mitochondrial sodium-calcium exchanger (mNCE) (Rattus norvegicus, UniProt Q6AXS0)
T1 construct: from tissue; host or cells: rat whole brain, isolated mitochondria
T1 sequence (Q6AXS0 27-585): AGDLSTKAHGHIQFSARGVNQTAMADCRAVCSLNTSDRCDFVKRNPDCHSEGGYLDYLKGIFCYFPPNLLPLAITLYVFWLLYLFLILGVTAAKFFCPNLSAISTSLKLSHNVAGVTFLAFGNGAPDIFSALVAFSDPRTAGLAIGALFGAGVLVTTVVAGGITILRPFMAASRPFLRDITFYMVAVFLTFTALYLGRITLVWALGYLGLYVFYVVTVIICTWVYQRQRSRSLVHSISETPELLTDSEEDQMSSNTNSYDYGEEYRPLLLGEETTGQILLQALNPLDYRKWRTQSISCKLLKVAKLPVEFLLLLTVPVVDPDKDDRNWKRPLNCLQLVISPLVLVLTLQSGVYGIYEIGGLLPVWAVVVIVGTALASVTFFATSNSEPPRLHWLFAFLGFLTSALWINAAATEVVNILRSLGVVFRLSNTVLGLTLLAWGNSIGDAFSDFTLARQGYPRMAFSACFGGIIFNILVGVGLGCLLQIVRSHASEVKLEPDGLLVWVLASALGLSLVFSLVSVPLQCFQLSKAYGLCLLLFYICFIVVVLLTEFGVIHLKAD
Test: Measurement of the Na-Ca exchanger of rat brain mitochondria (Na-induced Ca-release, Oregon Green fluorescence)
Assay type: biochemical
Conditions: isolated rat brain mitochondria; Ca-efflux rates induced by 20 mM NaCl; rt
Description: The method is adapted from the method of Rosenthal et al. [J. Cereb. Blood Flow Metab., 7, 752-758 (1987)].
MSH+: 225 mM mannitol, 75 mM sucrose, 5 mM Hepes, 0.5 mM EDTA, 1 mg/ml of BSA (essentially free fatty acid free); final pH=7.3.
MSH−: Equal to MSH+, but without EDTA.
Nagarse solution: 5 mg of nagarse (bacterial protease type XXIV from Sigma, St. Louis, USA, catalogue # P-8038) dissolved in 1 ml of MSH+.
Digitonin solution: 10% W/V in DMSO.
The entire procedure is performed on ice. Remove the whole brain from the rat (1 brain=2 g). Add the tissue to cold MSH+in a beaker on ice. Cut the tissue into small pieces using scissors and wash the tissue 2 times with MSH+. Transfer the tissue into a 20 ml Dounce homogenizer and set level to about 9 ml with MSH+. Add 1 ml of freshly made Nagarse solution. Homogenize (6 strokes with a loose and 6 strokes with a tight pestle). […] The protein concentration is determined using the Pierce BCA assay (Pierce, Rockford Ill., USA). […]
In a typical experiment 96-well microtiter plates (flat bottom) are used. […] Distribute in a 96-well plate 5 μl/well of 2 μM ruthenium red [in 120 mM KCl and 20 mM Tris (pH=7.4)] and the compounds (in DMSO) to be analyzed (1 μl/well). […] Measure the Ca-release induced by the addition of Na by monitoring the Oregon Green fluorescence (485 nm and 538 nm monochromators for excitation and emission, respectively). […]

Compound O=C1CS(=O)(=O)C(c2ccccc2Cl)c2cc(Cl)ccc2N1 (stereo not shown) [Example 1, 2-Chloro-9-(2-chlorophenyl)-8,8-dioxo-5,7,8,9-tetrahydro-8lambda*6*-thia-5-aza-benzocyclohepten-6-one] has an IC50 of 3.8 µM.

— patent US20090281077A1, “Cyclic sulfones useful as mitochondrial sodium-calcium exchangers” (priority 2006, published 2009)
